For one data set, the target named is T1, CCR5 (Homo sapiens, UniProt P51681).
T1 construct: host or cells: CEM-NKr-CCR5-Luc cells, co-cultured with Hela-R5 cells expressing gp160 and HIV-1 Tat
Briefly: CCR5-mediated cell-cell fusion (CCF) assay. It is filed as cell-based. The settings on record: Hela-R5 cells co-cultured with CEM-NKr-CCR5-Luc cells, 24 hrs, luciferase readout. The procedure:
CCF assay was performed as described before (C. Ji, J. Zhang, N. Cammack and S. Sankuratri, J. Biomol. Screen. 2006 11(6):652-663). Hela-R5 cells (express gp160 from R5-tropic virus and HIV-1 Tat) were plated in 384 well white culture plates (BD Bioscience, Palo Alto, Calif.) at 7.5×10^3 cells per well in phenol red-free Dulbecco's Modified Eagle Medium (DMEM) supplemented with 10% FBS, 1× Pen-Strep, 300 μg/mL G418, 100 μg/mL hygromycin, and 1 μg/mL Doxycycline (Dox) (BD Bioscience, Palo Alto, Calif.), using Multimek (Beckman, Fullerton, Calif.) and incubated at 37° C. overnight to induce the expression of gp160. Ten μL diluted compounds in medium containing 5% DMSO were added to the cells, followed by the addition of CEM-NKr-CCR5-Luc (obtained from NIH AIDS Research & Reference Reagents Program) that expresses CD4 and CCR5 and carries a […] long terminal repeat (LTR)-driven luciferase reporter gene at 1.5×10^4 cells/15 μL/well and incubated for 24 hrs. At the end of co-culture, 15 μL of Steady-Glo luciferase substrate was added into each well, and the cultures were sealed and gently shaken for 45 min. The luciferase activity were measured for 10 sec per well as luminescence by using 16-channel TopCount NXT (PerkinElmer, Shelton, Conn.) with 10 min dark adaptation and the readout is count per second (CPS). For the drug interaction experiments, small molecule compounds or antibodies were serially diluted in serum-free and phenol red-free RPMI containing 5% DMSO (CalBiochem, La Jolla, Calif.) and 1× Pen-Strep5 μL each of the two diluted compound or mAb to be tested for drug-drug interactions were added to the Hela-R5 cells right before the addition of target cells. Representative results are compiled in TABLE II

A word on the IC50: it is the concentration at which inhibition is half-maximal. One may read the melting point as the temperature, or range, at which the solid turns liquid.

T1 sequence (P51681 whole entry): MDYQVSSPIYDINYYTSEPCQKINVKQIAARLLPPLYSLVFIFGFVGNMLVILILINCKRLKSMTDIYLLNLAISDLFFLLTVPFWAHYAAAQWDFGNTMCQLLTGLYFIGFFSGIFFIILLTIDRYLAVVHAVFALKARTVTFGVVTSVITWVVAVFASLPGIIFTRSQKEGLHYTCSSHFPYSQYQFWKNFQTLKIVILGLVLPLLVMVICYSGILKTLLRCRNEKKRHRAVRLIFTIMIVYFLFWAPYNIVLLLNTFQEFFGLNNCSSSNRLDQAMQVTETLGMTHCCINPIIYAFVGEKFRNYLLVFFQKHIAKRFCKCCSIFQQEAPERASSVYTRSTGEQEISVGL

At CCR5, `CCCCC1C(=O)N(CC2CCN(C(=O)OC)CC2)CCC12CCN(C1(C)CCN(C(=O)c3c(C)ncnc3C)CC1)CC2` (stereo not shown) [I-19, 4-{1-Butyl-9-[1-(4,6-dimethyl-pyrimidine-5-carbonyl)-4-methyl-piperidin-4-yl]-2-oxo-3,9-diaza-spiro[5.5]undec-3-ylmethyl}-piperidine-1-carboxylic acid methyl ester] yielded an IC50 of 7.8 nM.
In turn, `CCCCC1C(=O)N(CC2CCOCC2)CCC12CCN(C1(C)CCN(C(=O)c3c(C)ncnc3C)CC1)CC2` (stereo not shown) [I-3, 1-Butyl-9-[1-(4,6-dimethyl-pyrimidine-5-carbonyl)-4-methyl-piperidin-4-yl]-3-(tetrahydro-pyran-4-ylmethyl)-3,9-diaza-spiro[5.5]undecan-2-one] showed an IC50 against CCR5 of 9.5 nM.
In turn, `CCCCC1CN(S(=O)(=O)C2CCN(C(C)=O)CC2)CCC12CCN(C1(C)CCN(C(=O)c3c(C)ncnc3C)CC1)CC2` (stereo not shown) [I-25] returned a melting point of 113 to 120 °C. In addition, the IC50 at CCR5 turned out to be 9.8 nM.
